Source: ChEMBL document CHEMBL5543149, “Discovery of Novel Aryl Triazolone Dihydropyridines (ATDPs) Targeting Highly Conserved Residue W229 as Promising HIV-1 NNRTIs” (J Med Chem, 2024)
Converted amounts (≈) assume the structure as drawn.

Columns and labels:
[1] = system: Human immunodeficiency virus 1; assay: Antiviral activity against wild type HIV-1 IIIB infected in human MT4 cells assessed as protection against virus-induced cytopathic effect incubated for 5 days by MTT assay; format: functional, organism-based; details: Human immunodeficiency virus 1, IIIB, MT4, 120 h
[2] = Cytotoxicity against human MT4 cells assessed as reduction in cell viability by MTT assay; format: toxicity, cell-based
[3] = Selectivity index, ratio of CC50 for cytotoxicity against human MT4 cells assessed as reduction in cell viability by MTT assay to EC50 for antiviral activity against wild type HIV-1 IIIB infected in human MT4 cells assessed as protection against virus-induced cytopathic effect; format: toxicity, cell-based; details: read-out: Ratio CC50/EC50
[4] = system: Human immunodeficiency virus 1; assay: Antiviral activity against NNRTI-resistant HIV-1 harboring L100I mutant infected in human MT4 cells assessed as protection against virus-induced cytopathic effect by MTT assay; format: functional, organism-based; details: Human immunodeficiency virus 1, MT4
[5] = system: Human immunodeficiency virus 1; assay: Antiviral activity against NNRTI-resistant HIV-1 harboring K103N mutant infected in human MT4 cells assessed as protection against virus-induced cytopathic effect by MTT assay; format: functional, organism-based; details: Human immunodeficiency virus 1, MT4
[6] = system: Human immunodeficiency virus 1; assay: Antiviral activity against NNRTI-resistant HIV-1 harboring Y181C mutant infected in human MT4 cells assessed as protection against virus-induced cytopathic effect by MTT assay; format: functional, organism-based; details: Human immunodeficiency virus 1, MT4
[7] = system: Human immunodeficiency virus 1; assay: Antiviral activity against NNRTI-resistant HIV-1 harboring Y188L mutant infected in human MT4 cells assessed as protection against virus-induced cytopathic effect by MTT assay; format: functional, organism-based; details: Human immunodeficiency virus 1, MT4
[8] = system: Human immunodeficiency virus 1; assay: Antiviral activity against NNRTI-resistant HIV-1 harboring E138K mutant infected in human MT4 cells assessed as protection against virus-induced cytopathic effect by MTT assay; format: functional, organism-based; details: Human immunodeficiency virus 1, MT4
[9] = system: Human immunodeficiency virus 1; assay: Antiviral activity against NNRTI-resistant HIV-1 harboring RES056 mutant infected in human MT4 cells assessed as protection against virus-induced cytopathic effect by MTT assay; format: functional, organism-based; details: Human immunodeficiency virus 1, MT4
[10] = biological target: Human immunodeficiency virus type 1 reverse transcriptase (Human immunodeficiency virus 1, UniProt Q72547); assay: Inhibition of wild type HIV-1 Reverse transcriptase assessed as reduction of biotin-dUTP incorporation into […] using ABTS as substrate preincubated with compound for 1 hr followed by substrate addition in presence of biotin-labeled dNTPs by ELISA analysis
[11] = Solubility of compound at pH 2 incubated for 2 hrs by HPLC analysis; format: physicochemical; details: buffer
[12] = Water solubility of compound at pH 7 incubated for 2 hrs by HPLC analysis; format: physicochemical
[13] = Water solubility of compound at pH 7.4 incubated for 2 hrs by HPLC analysis; format: physicochemical
[14] = Half life in Sprague-Dawley rat at 2 mg/kg, iv measured upto 24 hrs by LC-MS/MS analysis; format: ADME, organism-based; details: in vivo
[15] = Half life in Sprague-Dawley rat at 10 mg/kg, po measured upto 24 hrs by LC-MS/MS analysis; format: ADME, organism-based; details: in vivo
[16] = Tmax in Sprague-Dawley rat at 2 mg/kg, iv measured upto 24 hrs by LC-MS/MS analysis; format: ADME, organism-based; details: in vivo
[17] = Tmax in Sprague-Dawley rat at 10 mg/kg, po measured upto 24 hrs by LC-MS/MS analysis; format: ADME, organism-based; details: in vivo
[18] = Cmax in Sprague-Dawley rat at 2 mg/kg, iv measured upto 24 hrs by LC-MS/MS analysis; format: ADME, organism-based; details: in vivo
[19] = Cmax in Sprague-Dawley rat at 10 mg/kg, po measured upto 24 hrs by LC-MS/MS analysis; format: ADME, organism-based; details: in vivo
[20] = AUC (0 to t ) in Sprague-Dawley rat at 2 mg/kg, iv measured upto 24 hrs by LC-MS/MS analysis; format: ADME, organism-based; details: in vivo
[21] = AUC (0 to t ) in Sprague-Dawley rat at 10 mg/kg, po measured upto 24 hrs by LC-MS/MS analysis; format: ADME, organism-based; details: in vivo
[22] = AUC (0 to infinity) in Sprague-Dawley rat at 2 mg/kg, iv measured upto 24 hrs by LC-MS/MS analysis; format: ADME, organism-based; details: in vivo
[23] = AUC (0 to infinity) in Sprague-Dawley rat at 10 mg/kg, po measured upto 24 hrs by LC-MS/MS analysis; format: ADME, organism-based; details: in vivo
[24] = Clearance in Sprague-Dawley rat at 2 mg/kg, iv measured upto 24 hrs by LC-MS/MS analysis; format: ADME, organism-based; details: in vivo
[25] = Oral bioavailability in Sprague-Dawley rat at 10 mg/kg measured upto 24 hrs by LC-MS/MS analysis; format: ADME, organism-based; details: in vivo
[26] = system: Human immunodeficiency virus 1; assay: Antiviral activity against wild type HIV-1 infected in mouse harboring […] mutant at 10 mg/kg, po measured for 24 hrs; format: functional, organism-based; details: Human immunodeficiency virus 1, 24 h
[27] = system: Human immunodeficiency virus 1; assay: Antiviral activity against wild type HIV-1 infected in mouse harboring RES056 mutant at 10 mg/kg, po measured for 24 hrs; format: functional, organism-based; details: Human immunodeficiency virus 1, 24 h
[28] = system: Human immunodeficiency virus 1; assay: Antiviral activity against wild type HIV-1 infected in mouse at 10 mg/kg, po measured for 24 hrs; format: functional, organism-based; details: Human immunodeficiency virus 1, 24 h
[29] = system: Human immunodeficiency virus 1; assay: Antiviral activity against wild type HIV-1 infected in mouse harboring L100I mutant at 10 mg/kg, po measured for 24 hrs; format: functional, organism-based; details: Human immunodeficiency virus 1, 24 h
[30] = system: Human immunodeficiency virus 1; assay: Antiviral activity against wild type HIV-1 infected in mouse harboring K103N mutant at 10 mg/kg, po measured for 24 hrs; format: functional, organism-based; details: Human immunodeficiency virus 1, 24 h
[31] = system: Human immunodeficiency virus 1; assay: Antiviral activity against wild type HIV-1 infected in mouse harboring Y181C mutant at 10 mg/kg, po measured for 24 hrs; format: functional, organism-based; details: Human immunodeficiency virus 1, 24 h
[32] = system: Human immunodeficiency virus 1; assay: Antiviral activity against wild type HIV-1 infected in mouse harboring E138K mutant at 10 mg/kg, po measured for 24 hrs; format: functional, organism-based; details: Human immunodeficiency virus 1, 24 h
[33] = Acute toxicity in Kunming mouse assessed as behavioral abnormalities at 2000 mg/kg, po measured for 7 days; format: organism-based; details: in vivo, 168 h, time 7 day
[34] = Acute toxicity in Kunming mouse assessed as change in body weight at 2000 mg/kg, po measured for 7 days; format: organism-based; details: in vivo, 168 h, time 7 day
[35] = Subacute toxicity in Kunming mouse assessed as lethargy at 50 mg/kg, po administered every 2 days for 2 weeks; format: organism-based; details: in vivo, 336 h
[36] = Subacute toxicity in Kunming mouse assessed as clonic convulsion at 50 mg/kg, po administered every 2 days for 2 weeks; format: organism-based; details: in vivo, 336 h
[37] = Subacute toxicity in Kunming mouse assessed as anorexia at 50 mg/kg, po administered every 2 days for 2 weeks; format: organism-based; details: in vivo, 336 h
[38] = Subacute toxicity in Kunming mouse assessed as ruffled fur at 50 mg/kg, po administered every 2 days for 2 weeks; format: organism-based; details: in vivo, 336 h
[39] = Subacute toxicity in Kunming mouse assessed as heart damage at 50 mg/kg, po administered every 2 days for 2 weeks; format: organism-based; details: in vivo, 336 h
[40] = Subacute toxicity in Kunming mouse assessed as liver damage at 50 mg/kg, po administered every 2 days for 2 weeks; format: organism-based; details: in vivo, 336 h
[41] = Subacute toxicity in Kunming mouse assessed as spleen damage at 50 mg/kg, po administered every 2 days for 2 weeks; format: organism-based; details: in vivo, 336 h
[42] = Subacute toxicity in Kunming mouse assessed as lung damage at 50 mg/kg, po administered every 2 days for 2 weeks; format: organism-based; details: in vivo, 336 h
[43] = Subacute toxicity in Kunming mouse assessed as kidney damage at 50 mg/kg, po administered every 2 days for 2 weeks; format: organism-based; details: in vivo, 336 h

Compound `Cn1c(Cn2ccc(C(F)(F)F)c(Oc3cc(Cl)cc(-c4ccc(Br)cc4)c3)c2=O)n[nH]c1=O` has an EC50 [1] of 9 nM, a CC50 [2] of 118000 nM and a selectivity ratio [3] of 13100. It also gave an EC50 [4] of 11 nM, an EC50 [5] of 13 nM and an EC50 [6] of 18 nM. The EC50 [7] was 703 nM, the EC50 [8] was 13 nM and the EC50 [9] was 59 nM. It also gave an IC50 [10] of 40 nM, a solubility at 2 h [11] of 107 µg/mL (≈ 193 µM) and a solubility at 2 h [12] of 45.7 µg/mL (≈ 82.2 µM). The solubility at 2 h [13] was 32.2 µg/mL (≈ 57.9 µM), the half-life [14] was 4.49 h and the half-life [15] was 5.09 h. It also gave a Tmax [16] of 3 min, a Tmax [17] of 4 h and a Cmax [18] of 1950 ng/mL. It also gave a Cmax [19] of 3340 ng/mL, an AUC(0-t) at 24 h [20] of 5490 ng·h/mL and an AUC(0-t) at 24 h [21] of 39600 ng·h/mL. The AUC(0-inf) [22] was 7670 ng·h/mL, the AUC(0-inf) [23] was 41800 ng·h/mL and the clearance [24] was 4.35 mL/min/kg. The bioavailability [25] was 109%, the EC50 [26] was 703 nM and the EC50 [27] was 56 nM. The EC50 [28] was 9 nM, the EC50 [29] was 11 nM and the EC50 [30] was 13 nM. The EC50 [31] was 16 nM, the EC50 [32] was 13 nM and the Activity [33] was “Non-Toxic”. For the same compound, the Activity [34] was “Non-Toxic”, the Activity [35] was “Non-Toxic” and the Activity [36] was “Non-Toxic”. The Activity [37] was “Non-Toxic”, the Activity [38] was “Non-Toxic” and the Activity [39] was “Non-Toxic”. The Activity [40] was “Non-Toxic”, the Activity [41] was “Non-Toxic” and the Activity [42] was “Non-Toxic”. The Activity [43] was “Non-Toxic”.
